# Data: patent US20090155797A1, “Methods For Generating Enhanced Antibody-Producing Cell Lines With Improved Growth Characteristics” (priority 2002, published 2009)
# Tested on: H34 cells
# Experiment: Antibody production by ELISA from H34 hybridoma cells incubated with protease inhibitor
# Assay type: cell-based, mouse
# Conditions: H34 cells incubated 1-3 days with 4 mM AEBSF in 96 well plates, supernatant ELISA; untreated H34 4.3 ug/ml
structure (smiles),measurement,value
"NCCc1ccc(S(=O)(=O)F)cc1 [AEBSF, 4-(2-aminoethyl)-benzenesulfonyl floride]",ANTIBODY PRODUCTION TREATED,0.031 µg/mL
